The source of these data is patent US12589111B2, “Pt(IV) chemotherapeutic prodrug and controlled release thereof for treatment of tumors” (PEKING UNIVERSITY, priority 2020, dated 2026).

Molecules are shown by their SMILES.

What all share (assay type): physicochemical
The nature of data set [1]: Determination of release efficiency by UPLC-MS after X-ray irradiation. To be noted: 10 μM in pure water, deoxygenated, 60 Gy X-ray (4 Gy/min, 15 min); released divalent platinum drug by UPLC-MS. Here is the method:
2.7 Determination of Release Efficiency by UPLC-MS
Corresponding tetravalent platinum complexes (compounds 1-66) were dissolved in DMSO to obtain tetravalent platinum stock solutions (10 mM), and then diluted to 10 μM with pure water. After deoxygenation, the solution was subjected to 60 Gy X-ray irradiation (4 Gy/min, 15 min). The reaction crude product was analyzed by UPLC-MS, and the released product was determined to be the corresponding divalent platinum drug by UPLC-MS. The concentration of the divalent platinum drug was determined by the external standard curve of the platinum drug, and the release efficiency was calculated.

Data set [2] in a line: Release of the corresponding platinum drug of Pt(IV)-(Suc)2 after γ-ray irradiation. To be noted: deoxygenated, 60Co γ-rays; UPLC-MS, 195Pt NMR. The protocol:
2.6 Detection of the Release of the Corresponding Platinum Drug of Pt(IV)-(Suc)2
Pt(IV)-(Suc)2 was dissolved in 1 mL of deuterium water ([…]), and the mixture was adjusted to a pH of 7 with NaOH. After deoxygenation, the solution was exposed to 40 kGy γ-ray irradiation (^60Co source, 200 Gy/min, 200 min).
Determination of product by UPLC-MS (FIG. 3, b c)
After deoxygenation, the solution was exposed to 1 kGy γ-ray irradiation (^60Co source, 100 Gy/min, 10 min).

A short description of data set [3]: Ligand release of Pt(IV) complex 1 in different solutions after X-ray irradiation. Here is the method:
2.5 Detection of Ligand Release of Pt(IV) Complex 1 in Different Solutions
A 10 mM stock solution of Pt(IV) complex 1 was prepared, and diluted to 100 μM in H2O. PBS, 5 mM Tyr, Trp, DMEM and CM (complete medium), FBS solution. After X-ray irradiation, 200 μL of ACN was added to each solution. The mixture was centrifuged, and the supernatant was then collected. The operation was repeated 2 more times, and the final concentration was ⅛ of the original concentration. Ligand release was detected by UPLC-MS and quantified by a standard curve of coumarin.

Turning to `CC(=O)[O][Pt]([NH2])([NH2])([Cl])([Cl])[O]C(=O)CN(C)C` [Compound 16], the Release efficiency in data set [1] was found to be 71.9%.

With `CCCCCCCCCCCCCCCCNC(=O)[O][Pt]([NH2])([NH2])([Cl])([Cl])[O]C(=O)CN(C)C` [Compound 19], the Release efficiency in data set [1] is listed as 78.5%.

For `[NH2][Pt]1([NH2])([O]C(=O)CCC(=O)O)([O]C(=O)CCC(=O)O)[O]C(=O)C2(CCC2)C(=O)[O]1` [carboPt(IV)-(Suc)2], in data set [2], the “product released by γ-ray irradiation” value is given as “release the corresponding Pt(II) drugs”.

Turning to `CCCCCCCCCCCCCCCC(=O)[O][Pt]1([O]C(=O)CN(C)C)[O]C(=O)C(=O)[O]1.N[C@@H]1CCCC[C@H]1N` [Compound 65], in data set [1], the Release efficiency came to 74.6%.

With `CCCCCCCCCCCCCCCCCCNC(=O)[O][Pt]1([O]C(=O)CN(C)C)[O]C(=O)C(=O)[O]1.N[C@@H]1CCCC[C@H]1N` [Compound 64], the Release efficiency in data set [1] is recorded as 82.2%.

On to `CN(C)CC(=O)[O][Pt]1([O]C(=O)CCCc2ccc(I)cc2)[O]C(=O)C(=O)[O]1.N[C@@H]1CCCC[C@H]1N` [Compound 61], for which the Release efficiency in data set [1] was found to be 73.7%.

As to `CCCCCCCCCCCCCCCCNC(=O)[O][Pt]1([O]C(=O)CN(C)C)[O]C(=O)C(=O)[O]1.N[C@@H]1CCCC[C@H]1N` [Compound 63], the Release efficiency in data set [1] is 75.7%.

For `[NH2][Pt]([NH2])([Cl])([Cl])([O]C(=O)CCCCCN1C(=O)C=CC1=O)[O]C(=O)CCC(=O)O` [Compound 11], in data set [1], the Release efficiency is listed as 73.9%.

In the case of `CC(=O)[O][Pt]([NH2])([NH2])([Cl])([Cl])[O]C(=O)CCCCCN1C(=O)C=CC1=O` [Compound 3], in data set [1], the Release efficiency is reported as 80.3%.

As for `CC(=O)[O][Pt]([Cl])([Cl])[O]C(C)=O.N.N` [Pt(IV) complex 1], the “reaction yield of ligand release” value in data set [3] (100 μM in complete fetal bovine serum (FBS)) is given as “not much different from that in water”. Moreover, the “release of axial ligands” value in data set [3] (100 μM, PBS, 5 mM Tyr, 5 mM Trp, DMEM, CM, X-ray, UPLC-MS) was “achieved in all of the above solutions”.

As for `CCCCCCCCCCCCCCCCCCNC(=O)[O][Pt]([NH2])([NH2])([Cl])([Cl])[O]C(=O)CCC(=O)O` [Compound 13], in data set [1], the Release efficiency was 82.7%.

As to `N.N.O=C(O)CCC(=O)[O][Pt]1([O]C(=O)CCCc2ccc(I)cc2)[O]C(=O)C2(CCC2)C(=O)[O]1` [Compound 32], the Release efficiency in data set [1] is 64.6%.

For `CCCCCCCCCCCCCCCCNC(=O)[O][Pt]1([NH2])([NH2])([O]C(C)=O)[O]C(=O)C2(CCC2)C(=O)[O]1` [Compound 26], the Release efficiency in data set [1] stood at 69.4%.

Regarding `CCCCCCCCCCCCCCCCNC(=O)[O][Pt]([NH2])([NH2])([Cl])([Cl])[O]C(=O)CCC(=O)O` [Compound 12], in data set [1], the Release efficiency came out at 77.4%.

Regarding `CC(=O)[O][Pt]([NH2])([NH2])([Cl])([Cl])[O]C(=O)CCC(=O)O` [Compound 8], the Release efficiency in data set [1] amounted to 75.5%.

With `NC1CCCCC1N.O=C(O)CCC(=O)[O][Pt]1([O]C(=O)CCC(=O)O)[O]C(=O)C(=O)[O]1` [oxaliPt(IV)-(Suc)2], the “product released by γ-ray irradiation” value in data set [2] is on record as “released product was oxaliplatin”.

As for `N.N.O=C(O)CCC(=O)[O][Pt]([Cl])([Cl])[O]C(=O)CCC(=O)O` [cisPt(IV)-(Suc)2], the “product released by γ-ray irradiation” value in data set [2] is on record as “release the corresponding Pt(II) drugs”.

Turning to `CCCCCCCCCCCCCCCCCC(=O)[O][Pt]1([O]C(=O)CN(C)C)[O]C(=O)C(=O)[O]1.N[C@@H]1CCCC[C@H]1N` [Compound 66], the Release efficiency in data set [1] was determined as 77.5%.

Turning to `CN(C)CC(=O)[O][Pt]1([O]C(=O)CCCCCN2C(=O)C=CC2=O)[O]C(=O)C(=O)[O]1.N[C@@H]1CCCC[C@H]1N` [Compound 62], in data set [1], the Release efficiency was found to be 74.5%.

For the molecule `N[C@@H]1CCCC[C@H]1N.O=C(O)CCC(=O)[O][Pt]1([O]C(=O)CCC(=O)O)[O]C(=O)C(=O)[O]1` [Compound 53], the Release efficiency in data set [1] came to 76.7%.

For `CN(C)CC(=O)[O][Pt]1([O]C(=O)CCCc2ccc(I)cc2)[O]C(=O)C2(CCC2)C(=O)[O]1.N.N` [Compound 39], the Release efficiency in data set [1] worked out at 71.0%.

In the case of `CC(=O)[O][Pt]([NH2])([NH2])([Cl])([Cl])[O]C(=O)CCCc1ccc(I)cc1` [Compound 2], in data set [1], the Release efficiency came out at 85.7%.

Consider `CCCCCCCCCCCCCCCCCCNC(=O)[O][Pt]([NH2])([NH2])([Cl])([Cl])[O]C(=O)CN(C)C` [Compound 20], for which, in data set [1], the Release efficiency was found to be 83.7%.

`CCCCCCCCCCCCCCCCCC(=O)[O][Pt]1([O]C(=O)CCC(=O)O)[O]C(=O)C(=O)[O]1.N[C@@H]1CCCC[C@H]1N` [Compound 59]: in data set [1], the Release efficiency was determined as 82.0%.

Turning to `CCCCCCCCCCCCCCCCCCNC(=O)[O][Pt]1([O]C(=O)CN(C)C)[O]C(=O)C2(CCC2)C(=O)[O]1.N.N` [Compound 42], the Release efficiency in data set [1] is 66.3%.

As to `CCCCCCCCCCCCCCCCNC(=O)[O][Pt]1([O]C(=O)CCC(=O)O)[O]C(=O)C(=O)[O]1.N[C@@H]1CCCC[C@H]1N` [Compound 56], the Release efficiency in data set [1] turned out to be 80.2%.

For `CCCCCCCCCCCCCCCCCCNC(=O)[O][Pt]1([O]C(=O)CCC(=O)O)[O]C(=O)C(=O)[O]1.N[C@@H]1CCCC[C@H]1N` [Compound 57], the Release efficiency in data set [1] was 76.3%.

Take `CN(C)CC(=O)[O][Pt]1([O]C(=O)CCCCCN2C(=O)C=CC2=O)[O]C(=O)C2(CCC2)C(=O)[O]1.N.N` [Compound 40]: the Release efficiency in data set [1] is on record as 68.9%.

Regarding `N[C@@H]1CCCC[C@H]1N.O=C(O)CCC(=O)[O][Pt]1([O]C(=O)CCCc2ccc(I)cc2)[O]C(=O)C(=O)[O]1` [Compound 54], the Release efficiency in data set [1] is reported as 75.3%.

For the molecule `N[C@@H]1CCCC[C@H]1N.O=C(O)CCC(=O)[O][Pt]1([O]C(=O)CCCCCN2C(=O)C=CC2=O)[O]C(=O)C(=O)[O]1` [Compound 55], the Release efficiency in data set [1] was 81.9%.

`[NH2][Pt]([NH2])([Cl])([Cl])([O]C(=O)CCCc1ccc(I)cc1)[O]C(=O)CCC(=O)O` [Compound 10]: the Release efficiency in data set [1] is on record as 76.7%.

Take `CN(C)CC(=O)[O][Pt]([NH2])([NH2])([Cl])([Cl])[O]C(=O)CCCCCN1C(=O)C=CC1=O` [Compound 18]: the Release efficiency in data set [1] is 73.5%.

`[NH2][Pt]([NH2])([Cl])([Cl])([O]C(=O)CCC(=O)O)[O]C(=O)CCC(=O)O` [Compound 9]: the Release efficiency in data set [1] worked out at 75.6%.

As for `CC(=O)[O][Pt]([NH2])([NH2])([Cl])([Cl])[O]C(C)=O` [Compound 1], the Release efficiency in data set [1] was 83.2%.

`CCCCCCCCCCCCCCCCCCNC(=O)[O][Pt]([NH2])([NH2])([Cl])([Cl])[O]C(C)=O` [Compound 5]: the Release efficiency in data set [1] worked out at 73.9%.

In the case of `CCCCCCCCCCCCCCCCCCNC(=O)[O][Pt]1([O]C(=O)CCC(=O)O)[O]C(=O)C2(CCC2)C(=O)[O]1.N.N` [Compound 35], in data set [1], the Release efficiency stood at 73.5%.

As to `N.N.O=C(O)CCC(=O)[O][Pt]1([O]C(=O)CCC(=O)O)[O]C(=O)C2(CCC2)C(=O)[O]1` [Compound 31], the Release efficiency in data set [1] worked out at 65.9%.

Take `CN(C)CC(=O)[O][Pt]([NH2])([NH2])([Cl])([Cl])[O]C(=O)CCCc1ccc(I)cc1` [Compound 17]: in data set [1], the Release efficiency is reported as 79.6%.

With `N.N.O=C(O)CCC(=O)[O][Pt]1([O]C(=O)CCCCCN2C(=O)C=CC2=O)[O]C(=O)C2(CCC2)C(=O)[O]1` [Compound 33], in data set [1], the Release efficiency was 67.7%.

Take `CCCCCCCCCCCCCCCC(=O)[O][Pt]1([O]C(=O)CCC(=O)O)[O]C(=O)C(=O)[O]1.N[C@@H]1CCCC[C@H]1N` [Compound 58]: the Release efficiency in data set [1] stood at 81.3%.

For `CC(=O)[O][Pt]1([O]C(=O)CN(C)C)[O]C(=O)C(=O)[O]1.N[C@@H]1CCCC[C@H]1N` [Compound 60], the Release efficiency in data set [1] came to 81.3%.

With `CCCCCCCCCCCCCCCCNC(=O)[O][Pt]([NH2])([NH2])([Cl])([Cl])[O]C(C)=O` [Compound 4], the Release efficiency in data set [1] is recorded as 79.5%.
